From patent publication US20230346827A1 (priority 2020, published 2023)

System: rats subjected to sTBI
Test: sTBI rats, LMW-DS 1, 5, 15 mg/kg s.c. 30 min post-TBI: HPLC of brain energy metabolites, antioxidants, oxidative/nitrosative stress biomarkers (Example 4)
Assay type: in vivo, rat
Method: Male Wistar rats (n=160) of 300-350 g body weight were used in this study. They were fed with standard laboratory diet and water ad libitum in a controlled environment.
As the accepted anesthetic mixture, animals received 35 mg/kg b.w. ketamine and 0.25 mg/kg body weight midazolam by intramuscular injection. Diffuse sTBI was induced according to the “weight drop” impact acceleration model set up by Marmarou et al. J. Neurosurg. 1994, 80: 291-300. This model causes diffuse axonal injury and it is able to reproduce the physical and mechanical characteristics of the diffuse TBI in humans.
Severe TBI was induced by dropping a 450 g weight from 2 meters height onto the rat head protected by a helmet (metal disk previously fixed on the skull using dental cement) in order to uniformly distribute the mechanical force to the brain. Rats were placed prone on a bed of specific polyurethane foam inserted in a special container; this foam dissipates the major part of the potential energy (deriving from the mechanical forces) and prevents any rebound of the animal after the impact that could produce spinal damages.
After 2 or 7 days from TBI induction, rats were anesthetized again and then immediately sacrificed. These time points are coincident with the worst biochemical derangement (2 days) or, in the case of a mildly injured brain, with a full metabolic recovery (7 days).
The drug treatment consisted in a subcutaneous injection of 0.5 ml of LMW-DS (ILB®, Tikomed, Viken, Sweden, WO 2016/076780) and administered at 3 different concentrations (1, 5 and 15 mg/kg body weight), according to the schematic protocol described below. Sham-operated animals underwent the same procedure of anesthesia but TBI and were used as the control group.
(§1) Rats subjected to sTBI and receiving a single administration of LMW-DS after 30 minutes post-TBI, with sacrifice at 2 days post-TBI. Animals were divided in the following subgroups: • 1. 12 animals subjected to sTBI and treated with 1 mg/kg b.w. LMW-DS • 2. 12 animals subjected to sTBI and treated with 5 mg/kg b.w. LMW-DS • 3. 12 animals subjected to sTBI and treated with 15 mg/kg b.w. LMW-DS
as §1, with “at 7” for “at 2”
Rats (n = 12) subjected to sTBI and receiving repeated administrations of the maximal dose of LMW-DS (15 mg/kg b.w.) after 30 minutes, 3 days and 5 days post-TBI, with sacrifice at 7 days post-TBI. Four additional rats were used for the histo-morphological studies. Total rats in this group: n=16
To minimize metabolite loss, an in vivo craniectomy was performed in all animals during anesthesia. The rat skull was carefully removed, the brain was exposed, sharply cut along the sagittal fissure and the two hemispheres were separated. The hemispheres dedicated to biochemical analyses were freeze-clamped by aluminum tongues pre-cooled in liquid nitrogen and then immersed in liquid nitrogen. The freeze-clamping procedure was introduced to accelerate freezing of the tissue, thus minimizing potential metabolite loss.
Tissue homogenization for metabolite analyses was effected as described below. After the wet weight (w.w.) determination, the frozen hemispheres were placed into 7 ml of ice-cold, nitrogen-saturated, precipitating solution (1:10 w/v) composed by CH3CN + 10 mM KH2PO4, pH 7.40, (3:1; v:v), and the homogenization was performed using an Ultra-Turrax homogenizer set at 24,000 rpm/min (Janke & Kunkel, Staufen, Germany). […]

[1] = 15 mg/kg, 7 d post-sTBI, adimensional ratio

## sodium salt of dextran sulfate [LMW-DS]
15 mg/kg, 2 d post-sTBI
  GDP: 194.61 ± 26.88 nmol/g w.w.
  GDP Glucose: 84.24 ± 37.54 nmol/g w.w.
  GMP: 178.88 ± 22.46 nmol/g w.w.
  GSH: 2418.94 ± 352.75 nmol/g w.w.
  GTP: 179.07 ± 18.89 nmol/g w.w.
  GUANINE: 1.61 ± 0.40 nmol/g w.w.
  GUANOSINE: 24.35 ± 4.05 nmol/g w.w.
  HYPOXANTHINE: 6.82 ± 1.12 nmol/g w.w.
  IMP: 68.95 ± 12.98 nmol/g w.w.
  INOSINE: 142.91 ± 18.63 nmol/g w.w.
  MDA: 18.28 ± 2.98 nmol/g w.w.
  Malonyl-CoA: 28.73 ± 6.09 nmol/g w.w.
  NADH: 10.83 ± 1.58 nmol/g w.w.
  NADPH: 8.93 ± 0.74 nmol/g w.w.
  NADP^+: 17.75 ± 4.06 nmol/g w.w.
  NAD^+: 475.32 ± 80.91 nmol/g w.w.
  NO2: 72.29 ± 8.71 nmol/g w.w.
  NO3: 56.50 ± 12.30 nmol/g w.w.
  UDP: 80.00 ± 8.20 nmol/g w.w.
  UDP-Gal: 116.34 ± 9.71 nmol/g w.w.
  UDP-GalNac: 22.37 ± 3.30 nmol/g w.w.
  UDP-Glc: 43.41 ± 6.43 nmol/g w.w.
  UDP-GlcNac: 108.74 ± 9.90 nmol/g w.w.
  UMP: 147.53 ± 20.38 nmol/g w.w.
  URACIL: 15.55 ± 3.04 nmol/g w.w.
  URIC ACID: 26.00 ± 5.33 nmol/g w.w.
  URIDINE: 87.55 ± 15.41 nmol/g w.w.
  UTP: 108.21 ± 16.99 nmol/g w.w.
  XANTHINE: 13.87 ± 1.44 nmol/g w.w.
  β-PSEUDOURIDINE: 7.84 ± 1.57 nmol/g w.w.
15 mg/kg, 2 d post-sTBI, adimensional ratio
  NAD^+/NADH: 44.40 ± 7.67
15 mg/kg, 7 d post-sTBI
  ADENOSINE: 55.95 ± 41.44 nmol/g w.w.
  ADP: 276.83 ± 36.87 nmol/g w.w.
  ADP-Ribose: 19.21 ± 4.82 nmol/g w.w.
  AMP: 50.50 ± 3.97 nmol/g w.w.
  ASCORBIC ACID: 2853.35 ± 343.64 nmol/g w.w.
  ATP: 1846.63 ± 148.55 nmol/g w.w.
  Acetyl-CoA: 38.60 ± 6.57 nmol/g w.w.
  CDP choline: 10.06 ± 3.23 nmol/g w.w.
  CMP: 47.10 ± 20.04 nmol/g w.w.
  CREATININE: 5.23 ± 0.92 nmol/g w.w.
  CTP: 96.44 ± 25.54 nmol/g w.w.
  CYTIDINE: 33.06 ± 11.63 nmol/g w.w.
  CYTOSINE: 13.87 ± 2.98 nmol/g w.w.
  CoA-SH: 64.93 ± 8.33 nmol/g w.w.
  GDP: 122.07 ± 13.95 nmol/g w.w.
  GDP Glucose: 101.65 ± 11.89 nmol/g w.w.
  GMP: 41.55 ± 19.66 nmol/g w.w.
  GSH: 2390.89 ± 315.16 nmol/g w.w.
  GTP: 479.98 ± 43.64 nmol/g w.w.
  GUANINE: 5.27 ± 2.24 nmol/g w.w.
  GUANOSINE: 20.91 ± 4.36 nmol/g w.w.
  HYPOXANTHINE: 10.21 ± 2.97 nmol/g w.w.
  IMP: 74.70 ± 19.13 nmol/g w.w.
  INOSINE: 104.41 ± 11.72 nmol/g w.w.
  MDA: 6.23 ± 1.03 nmol/g w.w.
  Malonyl-CoA: 7.98 ± 1.44 nmol/g w.w.
  NADH: 11.65 ± 1.63 nmol/g w.w.
  NADPH: 6.66 ± 1.55 nmol/g w.w.
  NADP^+: 23.75 ± 8.72 nmol/g w.w.
  NAD^+: 491.52 ± 69.61 nmol/g w.w.
  NO2: 110.72 ± 23.99 nmol/g w.w.
  NO3: 161.99 ± 27.67 nmol/g w.w.
  UDP: 37.91 ± 5.33 nmol/g w.w.
  UDP-Gal: 137.57 ± 9.46 nmol/g w.w.
  UDP-GalNac: 17.91 ± 5.13 nmol/g w.w.
  UDP-Glc: 62.97 ± 12.80 nmol/g w.w.
  UDP-GlcNac: 67.47 ± 23.34 nmol/g w.w.
  UMP: 181.82 ± 35.22 nmol/g w.w.
  URACIL: 15.92 ± 3.27 nmol/g w.w.
  URIC ACID: 8.60 ± 2.05 nmol/g w.w.
  URIDINE: 134.04 ± 31.76 nmol/g w.w.
  UTP: 127.42 ± 22.32 nmol/g w.w.
  XANTHINE: 12.71 ± 3.60 nmol/g w.w.
  β-PSEUDOURIDINE: 63.77 ± 11.83 nmol/g w.w.
[1]
  ATP/ADP: 6.76 ± 0.86
  NAD+/NADH: 42.51 ± 5.26
5 or 15 mg/kg b.w., 2 days post impact
  whole brain NAA: significantly higher than values found in sTBI rats
7 days post impact
  ATP levels, % lower than the value of controls: 16%
  NAA concentration, % lower than the value of controls: 16%
Increasing single doses or repeat maximal dose, 7 days post sTBI
  whole brain NAA: dose dependent increase
